The source made the active and inactive calls.
What was measured:
[1] = system: Mus musculus; assay: Antiallodynic activity in Kunming mouse model of spared nerve injury-induced neuropathic pain assessed as increase in paw withdrawal threshold at 0.67 to 6.7 nmol, icv at 10 mins by von Frey test; assay type: functional, organism-based; conditions: dose 0.67-6.7 nmol
[2] = species: Rattus norvegicus; assay: Selectivity index, ratio of Ki for displacement of [3H]-U69593 from KOR in Wistar rat brain membranes to Ki for displacement of [3H]DAMGO from MOR in Wistar rat brain membranes; assay type: cell membranes
[3] = molecular target: Mu-type opioid receptor (Homo sapiens, UniProt P35372); assay: Agonist activity at mu-opioid receptor (unknown origin) expressed in HEK293 cells assessed as inhibition of forskolin-induced cAMP accumulation incubated for 15 mins by ELISA relative to control; assay type: functional, cell-based; conditions: filed as agonist
Chain of Mu-type opioid receptor (P35372 whole entry): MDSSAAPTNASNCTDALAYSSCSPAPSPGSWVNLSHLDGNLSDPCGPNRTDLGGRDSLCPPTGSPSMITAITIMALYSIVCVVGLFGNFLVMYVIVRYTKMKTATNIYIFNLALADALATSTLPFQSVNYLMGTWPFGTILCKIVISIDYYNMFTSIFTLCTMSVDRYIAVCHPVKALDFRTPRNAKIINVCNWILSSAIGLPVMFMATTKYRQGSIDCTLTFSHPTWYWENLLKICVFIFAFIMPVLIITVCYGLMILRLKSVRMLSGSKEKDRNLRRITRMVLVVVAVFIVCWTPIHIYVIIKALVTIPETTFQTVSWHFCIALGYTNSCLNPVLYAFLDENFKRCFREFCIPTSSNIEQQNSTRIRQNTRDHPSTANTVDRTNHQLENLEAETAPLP

[4] = system: Mus musculus; assay: Antinociceptive activity in Kunming mouse model assessed as increase in paw withdrawal latency at 10 micromol/kg, sc pretreated with sc dosed naloxone for 5 mins followed by compound addition by radiant heat paw withdrawal assay; assay type: functional, organism-based; conditions: dose 10.0 µmol/kg
[5] = system: Mus musculus; assay: Chronic antinociceptive tolerance in Kunming mouse pretreated with compound followed by repeated compound addition at 20 nmol, icv once daily for 7 days and measured after 10 mins by radiant heat paw withdrawal test; assay type: functional, organism-based; conditions: time 7.0 day
[6] = system: Mus musculus; assay: Antinociceptive activity in Kunming mouse model assessed as increase in paw withdrawal latency at 20 nmol, icv pretreated for 20 mins with NTI followed by compound addition and measured upto 10 mins by radiant heat paw withdrawal assay; assay type: functional, organism-based; conditions: time min <=10
[7] = system: Mus musculus; assay: Antinociceptive tolerance in Kunming mouse pretreated with compound for 3 hrs followed by challenge with second dose of compound at 20 nmol, icv and measured after 3 hrs by radiant heat paw withdrawal test; assay type: functional, organism-based; conditions: time 6.0 hrs
[8] = system: Mus musculus; assay: Antiallodynic activity in Kunming mouse model of CFA-induced inflammatory pain assessed as increase in ipsilateral withdrawal threshold at 0.67 to 6.7 nmol, icv measured at 10 to 50 mins by von Frey test; assay type: functional, organism-based; conditions: dose 0.67-6.7 nmol, time 10-50 min
[9] = system: Mus musculus; assay: Antinociceptive activity in icv dosed Kunming mouse model assessed as increase in paw withdrawal latency by radiant heat paw withdrawal assay; assay type: functional; conditions: dose 0.67-20 nmol
[10] = species: Mus musculus; assay: Antinociceptive tolerance in Kunming mouse pretreated with saline for 2 hrs followed by compound addition by radiant heat paw withdrawal test; assay type: functional
[11] = system: Mus musculus; assay: Antiallodynic activity in icv dosed Kunming mouse model of CFA-induced inflammatory pain assessed as increase in ipsilateral withdrawal threshold measured upto 50 mins by von Frey test; assay type: functional, organism-based; conditions: dose 0.67-6.7 nmol, time min <=50
[12] = system: Mus musculus; assay: Antiallodynic activity in icv dosed Kunming mouse model of spared nerve injury-induced neuropathic pain assessed as increase in ipsilateral withdrawal threshold by von Frey test; assay type: functional, organism-based; conditions: dose 0.67-6.7 nmol
[13] = system: Mus musculus; assay: Antinociceptive activity in Kunming mouse model assessed as increase in paw withdrawal latency at 20 nmol, icv pretreated for 10 mins with naloxone followed by compound addition and measured upto 10 mins by radiant heat paw withdrawal assay; assay type: functional, organism-based; conditions: time min <=10
[14] = molecular target: Kappa-type opioid receptor (Homo sapiens) (UniProt P41145); assay: Agonist activity at kappa-opioid receptor (unknown origin) expressed in HEK293 cells assessed as inhibition of forskolin-induced cAMP accumulation incubated for 15 mins by ELISA; assay type: functional, cell-based
Chain of Kappa-type opioid receptor (Homo sapiens) (P41145 whole entry): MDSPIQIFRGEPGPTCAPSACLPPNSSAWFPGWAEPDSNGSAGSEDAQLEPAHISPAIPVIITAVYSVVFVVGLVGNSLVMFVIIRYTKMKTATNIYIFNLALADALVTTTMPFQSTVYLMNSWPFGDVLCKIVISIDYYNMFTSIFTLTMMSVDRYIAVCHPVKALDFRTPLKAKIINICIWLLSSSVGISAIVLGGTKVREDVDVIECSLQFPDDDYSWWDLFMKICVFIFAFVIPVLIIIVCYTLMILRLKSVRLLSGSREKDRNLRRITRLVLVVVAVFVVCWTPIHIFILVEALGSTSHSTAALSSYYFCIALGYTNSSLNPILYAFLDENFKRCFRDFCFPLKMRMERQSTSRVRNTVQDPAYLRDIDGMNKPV

[15] = species: Mus musculus; assay: Tolerance ratio of ED50 for Kunming mouse pretreated with 3 times ED50 of compound for 2 hrs followed by challenge with second dose of compound to ED50 for Kunming mouse pretreated with saline for 2 hrs followed by compound addition; assay type: functional
[16] = system: Mus musculus; assay: Chronic antinociceptive tolerance in Kunming mouse pretreated with compound followed by repeated compound addition at 10 micromol/kg, sc once daily for 7 days and measured after 10 mins by radiant heat paw withdrawal test; assay type: functional, organism-based; conditions: dose 10.0 µmol/kg, time 7.0 day
[17] = system: Mus musculus; assay: Chronic antinociceptive tolerance in Kunming mouse assessed as maximum possible effect pretreated with compound followed by repeated compound addition at 20 nmol, icv once daily for 7 days and measured after 10 mins by radiant heat paw withdrawal test; assay type: functional; conditions: time 7 day

With Cc1cc(O)cc(C)c1C[C@H](N)C(=O)N[C@H]1CSSC[C@@H](C(=O)NCC(=O)N[C@H](CCCNC(=N)N)C(=O)N[C@H](CCCNC(=N)N)C(=O)O)NC(=O)[C@H](Cc2ccc(Cl)cc2)NC(=O)[C@H](Cc2c[nH]c3ccccc23)NC1=O the Activity [1] was “Active”, the Ratio Ki [2] was 548 and the Emax [3] was 87.3%. The Activity [4] was “inactive”, the Activity [5] was “inactive” and the Activity [6] was “Active”. For the same compound, the Activity [7] was “inactive”, the Activity [8] was “Active” and the Activity [9] was “Dose-Dependent Effect”. For the same compound, the ED50 [9] was 2.1 nmol, the ED50 [10] was 2.2 nmol and the Activity [11] was “Dose-Dependent Effect”. For the same compound, the Activity [12] was “Dose-Dependent Effect”, the Activity [13] was “inactive” and the Activity [14] was “inactive”. For the same compound, the Ratio [15] was 1.2 and the Activity [16] was “inactive”.

Cc1cc(O)cc(C)c1C[C@H](N)C(=O)N[C@H]1CSSC[C@@H](C(=O)NCC(=O)N[C@H](CCCNC(=N)N)C(=O)N[C@H](CCCNC(=N)N)C(=O)O)NC(=O)[C@H](Cc2ccc(Cl)cc2)NC(=O)[C@H](Cc2ccccc2)NC1=O was tested, and the Activity [1] was “Active”, the Ratio Ki [2] was 710 and the MPE [17] was 77.25%. For the same compound, the Emax [3] was 83.8%, the Activity [4] was “inactive” and the Activity [6] was “Active”. The Activity [7] was “inactive”, the Activity [8] was “Active” and the Activity [9] was “Dose-Dependent Effect”. For the same compound, the ED50 [9] was 2.3 nmol, the ED50 [10] was 2.3 nmol and the Activity [11] was “Dose-Dependent Effect”. For the same compound, the Activity [12] was “Dose-Dependent Effect”, the Activity [13] was “inactive” and the Activity [14] was “inactive”. For the same compound, the Ratio [15] was 1.5 and the Activity [16] was “inactive”.
